Experiment: Pharmacokinetics in SD rats after intravenous injection and single oral gavage, plasma LC-MS/MS
Type: in vivo
Conditions: male, rat
Description: SD rats (male, 6-8 weeks old, from JH Laboratory Animal Co., Ltd.) were used for intravenous injection and single oral gavage administration. Plasma samples were collected at 0.083, 0.25, 0.5, 1, 2, 4, 8, and 24 hours post-dose.
The plasma samples were obtained by centrifugation (2000 rpm, 4° C., 5 min). Samples were added to a 96-well plate and mixed with 10 volumes of acetonitrile containing an internal standard. After mixing and shaking, the mixture was centrifuged (5800 rpm, 4° C., 10 min), and the supernatant was transferred to a new 96-well plate.
The resulting solution was injected into the LC-MS/MS system. Drug concentrations in plasma were quantified using the LC-MS/MS method, and pharmacokinetic parameters were calculated accordingly.

CC(C)(NC(=O)[C@H]1[C@@H]2CNC[C@H]1C2)c1ncc2c(Br)cccn12 [compound 1]
AUC(0-inf) (IV, 1 mg/kg): 370 ng·h/mL | AUC(0-t) (IV, 1 mg/kg): 361 ng·h/mL | MRT inf (IV, 1 mg/kg): 0.879 h | clearance (IV, 1 mg/kg): 45.2 mL/min/kg | half-life (IV, 1 mg/kg): 0.814 h | Vd (IV, 1 mg/kg, read-out: Vss): 2.38 L/kg | Cmax (PO, 3 mg/kg): 36.3 ng/mL | Tmax (PO, 3 mg/kg): 1.42 h | half-life (PO, 3 mg/kg): 2.43 h

Source: patent US20260015365A1, “PRODRUGS OF SOMATOSTATIN RECEPTORS SUBTYPE 4 (SSTR4) AGONISTS AND THEIR APPLICATIONS” (Humanwell Pharmaceutical US, Inc., priority 2024, published 2026)
